In BindingDB's records for doi:10.1021/bi500959t (University of Western Ontario, 2015):

Experiments:
[1] = target: T1, Ribosyldihydronicotinamide dehydrogenase [quinone] (Homo sapiens, UniProt P16083); assay: Fluorescence Titration Assay
T1 sequence (P16083 whole entry): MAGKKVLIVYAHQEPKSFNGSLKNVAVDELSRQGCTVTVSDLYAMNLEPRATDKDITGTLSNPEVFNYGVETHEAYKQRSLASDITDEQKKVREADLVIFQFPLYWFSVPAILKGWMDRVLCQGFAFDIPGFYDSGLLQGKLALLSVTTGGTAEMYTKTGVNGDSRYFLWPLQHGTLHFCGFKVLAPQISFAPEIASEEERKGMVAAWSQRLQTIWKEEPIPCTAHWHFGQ
Protocol: To assess direct binding of inhibitors to oxidized NQO2 (NQO2ox), fluorescence quenching of FAD was monitored with an excitation wavelength of 350 nm and an emission wavelength of 430 nm. NQO2 (775 or 38.75 nM) was titrated with the indicated concentrations of TBB, TBBz, and DMAT.

[2] = target: T1, Ribosyldihydronicotinamide dehydrogenase [quinone]; assay: Inhibition of Steady-State Catalysis Assay
Protocol: To determine the IC50 value of each inhibitor, reactions were initiated by addition of 154 pM NQO2 to a reaction buffer containing 150 μM SCDP and 5 μM menadione with TBB (0.625−640 μM), TBBz (2.5−640 nM), or DMAT (2.5−640 nM).

Compound	Kd [1] [nM]	IC50 [2] [nM]
CN(C)c1nc2c(Br)c(Br)c(Br)c(Br)c2[nH]1 [2-(dimethylamino)-4,5,6,7-tetrabromo-1H-benzimidazole]	36.4	484
Brc1c(Br)c(Br)c2[nH]cnc2c1Br [4,5,6,7-tetrabromo-1H-benzimidazole]	18.1	79.4
Brc1c(Br)c(Br)c2[nH]nnc2c1Br	7110	12800
